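1) Cells in 96-well plates. 2) Compound, 48 h, 5 concentrations. 3) Linear interpolation between surrounding doses. 4) Unreached endpoint = highest concentration. GI50 marks 50% less growth. TGI: concentration producing complete growth inhibition.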
Assays:
Assay in all cases: inhibition of tumour cell growth, NCI panel, 48 h; in the data active = GI50 below about 0.43 µM; inactive = the rest
KM12 colon = tested on: KM12 colon
HCT-116 colon = tested on: HCT-116 colon
SN12C renal = tested on: SN12C renal
UACC-62 melanoma = tested on: UACC-62 melanoma
K-562 leukemia = tested on: K-562 leukemia
MOLT-4 leukemia = tested on: MOLT-4 leukemia
HCT-15 colon = tested on: HCT-15 colon
SF-268 CNS = tested on: SF-268 CNS
OVCAR-8 ovarian = tested on: OVCAR-8 ovarian
HL-60(TB) leukemia = tested on: HL-60(TB) leukemia
A498 renal = tested on: A498 renal
IGROV1 ovarian = tested on: IGROV1 ovarian
CCRF-CEM leukemia = tested on: CCRF-CEM leukemia
SK-MEL-28 melanoma = tested on: SK-MEL-28 melanoma
SK-MEL-5 melanoma = tested on: SK-MEL-5 melanoma
UACC-257 melanoma = tested on: UACC-257 melanoma
SK-MEL-2 melanoma = tested on: SK-MEL-2 melanoma
HCC-2998 colon = tested on: HCC-2998 colon
NCI/ADR-RES ovarian = tested on: NCI/ADR-RES ovarian
HT29 colon = tested on: HT29 colon
U251 CNS = tested on: U251 CNS
T-47D breast = tested on: T-47D breast
SF-295 CNS = tested on: SF-295 CNS
RXF 393 renal = tested on: RXF 393 renal
LOX IMVI melanoma = tested on: LOX IMVI melanoma
A549 NSCLC = tested on: A549 NSCLC
SK-OV-3 ovarian = tested on: SK-OV-3 ovarian
786-0 renal = tested on: 786-0 renal
NCI-H226 lung = tested on: NCI-H226 lung
SNB-19 CNS = tested on: SNB-19 CNS
NCI-H522 lung = tested on: NCI-H522 lung
OVCAR-4 ovarian = tested on: OVCAR-4 ovarian
NCI-H460 lung = tested on: NCI-H460 lung
EKVX NSCLC = tested on: EKVX NSCLC
BT-549 breast = tested on: BT-549 breast
MALME-3M melanoma = tested on: MALME-3M melanoma
OVCAR-5 ovarian = tested on: OVCAR-5 ovarian
ACHN renal = tested on: ACHN renal
NCI-H23 lung = tested on: NCI-H23 lung
DU-145 prostate = tested on: DU-145 prostate
MDA-MB-435 = tested on: MDA-MB-435
CAKI-1 renal = tested on: CAKI-1 renal
HOP-92 NSCLC = tested on: HOP-92 NSCLC
HS 578T breast = tested on: HS 578T breast
SNB-75 CNS = tested on: SNB-75 CNS
SR leukemia = tested on: SR leukemia
M14 melanoma = tested on: M14 melanoma
MDA-MB-231 breast = tested on: MDA-MB-231 breast
MCF7 breast = tested on: MCF7 breast
TK-10 renal = tested on: TK-10 renal
HOP-62 NSCLC = tested on: HOP-62 NSCLC
UO-31 renal = tested on: UO-31 renal
SF-539 CNS = tested on: SF-539 CNS
COLO 205 colon = tested on: COLO 205 colon
PC-3 prostate = tested on: PC-3 prostate
SW-620 colon = tested on: SW-620 colon
OVCAR-3 ovarian = tested on: OVCAR-3 ovarian
RPMI-8226 leukemia = tested on: RPMI-8226 leukemia

COc1ccccc1/C=C/C(=O)c1ccc(Nc2nc(Nc3ccc(F)cc3)nc(Nc3ccc(F)cc3)n2)cc1
86.7 µM: TGI (M14 melanoma)
14.9 µM: TGI (786-0 renal)
55.1 µM: TGI (COLO 205 colon)
90.7 µM: TGI (MDA-MB-435)
16.3 µM: TGI (RPMI-8226 leukemia)
9.37 µM: TGI (RXF 393 renal)
98.5 µM: TGI (SF-295 CNS)
inactive: GI50 (KM12 colon) 7.67 µM | GI50 (HCT-116 colon) 4.58 µM | GI50 (SN12C renal) 51.2 µM | GI50 (UACC-62 melanoma) 55.5 µM | GI50 (K-562 leukemia) 9.94 µM | GI50 (MOLT-4 leukemia) 6.13 µM | GI50 (HCT-15 colon) 6.57 µM | GI50 (SF-268 CNS) 45.7 µM | GI50 (OVCAR-8 ovarian) 9.4 µM | GI50 (HL-60(TB) leukemia) 3.77 µM | GI50 (A498 renal) 13.3 µM | GI50 (IGROV1 ovarian) 22.6 µM | GI50 (CCRF-CEM leukemia) 5.6 µM | GI50 (SK-MEL-28 melanoma) 33.6 µM | GI50 (SK-MEL-5 melanoma) 10.5 µM | GI50 (UACC-257 melanoma) 22 µM | GI50 (SK-MEL-2 melanoma) 25.2 µM | GI50 (HCC-2998 colon) 25.2 µM | GI50 (NCI/ADR-RES ovarian) 13 µM | GI50 (HT29 colon) 15.8 µM | GI50 (U251 CNS) 9.8 µM | GI50 (T-47D breast) 8.01 µM | GI50 (SF-295 CNS) 14.4 µM | GI50 (RXF 393 renal) 2.49 µM | GI50 (LOX IMVI melanoma) 21.1 µM | GI50 (A549 NSCLC) 10.9 µM | GI50 (SK-OV-3 ovarian) 69.7 µM | GI50 (786-0 renal) 2.85 µM | GI50 (NCI-H226 lung) 6.61 µM | GI50 (SNB-19 CNS) 74.2 µM | GI50 (NCI-H522 lung) 23 µM | GI50 (OVCAR-4 ovarian) 65.3 µM | GI50 (NCI-H460 lung) 9.38 µM | GI50 (EKVX NSCLC) 38.1 µM | GI50 (BT-549 breast) 13.5 µM | GI50 (MALME-3M melanoma) 20.1 µM | GI50 (OVCAR-5 ovarian) 51.9 µM | GI50 (ACHN renal) 25.2 µM | GI50 (NCI-H23 lung) 18.9 µM | GI50 (DU-145 prostate) 55.9 µM | GI50 (MDA-MB-435) 19.4 µM | GI50 (CAKI-1 renal) > 100 µM | GI50 (HOP-92 NSCLC) 7.24 µM | GI50 (HS 578T breast) 8.29 µM | GI50 (SNB-75 CNS) 50.6 µM | GI50 (SR leukemia) 4.34 µM | GI50 (M14 melanoma) 25.5 µM | GI50 (MDA-MB-231 breast) 25.8 µM | GI50 (MCF7 breast) 5.45 µM | GI50 (TK-10 renal) 48.6 µM | GI50 (HOP-62 NSCLC) 16.3 µM | GI50 (UO-31 renal) 9.52 µM | GI50 (SF-539 CNS) 1.73 µM | GI50 (COLO 205 colon) 2.55 µM | GI50 (PC-3 prostate) 5.49 µM | GI50 (SW-620 colon) 6.49 µM | GI50 (OVCAR-3 ovarian) 22.2 µM | GI50 (RPMI-8226 leukemia) 3.03 µM
47.2 µM: TGI (A498 renal)
77.6 µM: TGI (HOP-62 NSCLC)
17.6 µM: TGI (SF-539 CNS)
66.6 µM: TGI (UACC-257 melanoma)
97.8 µM: TGI (MOLT-4 leukemia)
71.1 µM: TGI (HS 578T breast)
40 µM: TGI (SK-MEL-5 melanoma)
46.5 µM: TGI (MALME-3M melanoma) | TGI (HOP-92 NSCLC)
> 100 µM: TGI (KM12 colon) | TGI (HCT-116 colon) | TGI (SN12C renal) | TGI (UACC-62 melanoma) | TGI (K-562 leukemia) | TGI (HCT-15 colon) | TGI (SF-268 CNS) | TGI (OVCAR-8 ovarian) | TGI (HL-60(TB) leukemia) | TGI (IGROV1 ovarian) | TGI (CCRF-CEM leukemia) | TGI (SK-MEL-28 melanoma) | TGI (SK-MEL-2 melanoma) | TGI (HCC-2998 colon) | TGI (NCI/ADR-RES ovarian) | TGI (HT29 colon) | TGI (U251 CNS) | TGI (T-47D breast) | TGI (LOX IMVI melanoma) | TGI (A549 NSCLC) | TGI (SK-OV-3 ovarian) | TGI (NCI-H226 lung) | TGI (SNB-19 CNS) | TGI (NCI-H522 lung) | TGI (OVCAR-4 ovarian) | TGI (NCI-H460 lung) | TGI (EKVX NSCLC) | TGI (BT-549 breast) | TGI (OVCAR-5 ovarian) | TGI (ACHN renal) | TGI (NCI-H23 lung) | TGI (DU-145 prostate) | TGI (CAKI-1 renal) | TGI (SNB-75 CNS) | TGI (SR leukemia) | TGI (MDA-MB-231 breast) | TGI (MCF7 breast) | TGI (TK-10 renal) | TGI (UO-31 renal) | TGI (PC-3 prostate) | TGI (SW-620 colon) | TGI (OVCAR-3 ovarian)
